In patent US8795984B2, “Production of glycoproteins with reduced O-glycosylation” (Merck Sharp & Dohme Corp., priority 2005, dated 2014):

Columns and labels:
[1] = tested on: O-glycosylation of secreted recombinant reporter proteins; assay: Western blot of His-tagged Kringle 1-3 protein in growth media (FIG. 1); assay type: cell-based, Pichia pastoris; settings: yJC53 treated with 2 or 20 μM, compared with pmt1Δ strain yJC55
Description: Kringle 1-3 protein expression for the transformed yeast strains was carried out at in shake flasks at 24° C. with buffered glycerol-complex medium (BMGY) consisting of 1% yeast extract, 2% peptone, 100 mM potassium phosphate buffer pH 6.0, 1.34% yeast nitrogen base, 4×10-5% biotin, and 1% glycerol. The induction medium for protein expression was buffered methanol-complex medium (BMMY) consisting of 1% methanol instead of glycerol in BMGY. Pmt inhibitor Pmti-1, Pmti-2, or Pmti-3 in methanol was added to the growth medium to a final concentration of 0.2 μM, 2 μM, or 20 μM at the time the induction medium was added. Cells were harvested and centrifuged at 2,000 rpm for five minutes. The Pmt inhibitors Pmti-1, Pmti-2, and Pmti-3 are essentially interchangeable, with small variations in ease of use. […]

[2] = Solubility in the cell culture conditions; assay type: physicochemical; settings: in the cell culture conditions described (BMGY/BMMY)
Description: Kringle 1-3 protein expression for the transformed yeast strains was carried out at in shake flasks at 24° C. with buffered glycerol-complex medium (BMGY) consisting of 1% yeast extract, 2% peptone, 100 mM potassium phosphate buffer pH 6.0, 1.34% yeast nitrogen base, 4×10-5% biotin, and 1% glycerol. The induction medium for protein expression was buffered methanol-complex medium (BMMY) consisting of 1% methanol instead of glycerol in BMGY. Pmt inhibitor Pmti-1, Pmti-2, or Pmti-3 in methanol was added to the growth medium to a final concentration of 0.2 μM, 2 μM, or 20 μM at the time the induction medium was added. Cells were harvested and centrifuged at 2,000 rpm for five minutes. The Pmt inhibitors Pmti-1, Pmti-2, and Pmti-3 are essentially interchangeable, with small variations in ease of use.

| solubility [2] | Compound | O-glycosylation of Kringle 1-3 protein on Western blot [1] |
| --- | --- | --- |
| – | O=C(O)CN1C(=O)C(=Cc2ccc(OCc3ccccc3)c(OCc3ccccc3)c2)SC1=S [Pmti-1, 5-[[3,4-bis(phenylmethoxy)phenyl]methylene]-4-oxo-2-thioxo-3-thiazolidineacetic Acid] | reduced O-glycosylation to a level similar to that observed in a strain lacking Pmt1 |
| greater than that of Pmti-1 and Pmti-2 | O=C(O)CN1C(=O)/C(=C/c2ccc(OCCc3ccccc3)c(OC(CO)c3ccccc3)c2)SC1=S (centres unmarked) [Pmti-3] | – |
